According to patent US20250188506A1, “ANTICOAGULANT HEPARIN-CHONDROITIN CHIMERIC SACCHARIDE MOLECULE AS WELL AS PREPARATION METHOD AND APPLICATION THEREOF” (SHANDONG UNIVERSITY, priority 2023, published 2025):

Columns and labels:
PF4 = target: T1, PF4 (Homo sapiens, UniProt P02776)
T1 sequence (P02776 32-101): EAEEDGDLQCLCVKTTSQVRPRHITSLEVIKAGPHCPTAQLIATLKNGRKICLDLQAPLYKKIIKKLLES

Xa factor = details: commercially available comparator, stated in advantages section; cited from earlier work

- average particle size of compounds formed with PF4 (PF4): 61.57 nm
SMILES: CO[C@H]1O[C@H](COS(=O)(=O)O)[C@@H](O[C@@H]2O[C@@H](C(=O)O)[C@@H](O[C@H]3O[C@H](COS(=O)(=O)O)[C@@H](O[C@@H]4O[C@H](C(=O)O)[C@@H](O[C@H]5O[C@H](COS(=O)(=O)O)[C@@H](O)[C@H](O)[C@H]5NS(=O)(=O)O)[C@H](O)[C@H]4O)[C@H](OS(=O)(=O)O)[C@H]3NS(=O)(=O)O)[C@H](O)[C@H]2OS(=O)(=O)O)[C@H](O)[C@H]1NS(=O)(=O)O [fondaparinux, fondaparinux sodium]
- neutralization of activity against the Xa factor by protamine (in words) (Xa factor): almost completely not neutralized
